Experimental data reported in PubChem BioAssay AID540252 (Sanford-Burnham Center for Chemical Genomics, 2011).
The source made the active and inactive calls. No rule for the calls is given here.

What follows are compounds tested against glucose-6-phosphate dehydrogenase-6-phosphogluconolactonase (Plasmodium falciparum 3D7) (assay: inhibition of P. falciparum G6PD activity – biochemical, end-point NADPH detection, orthogonal assay, dose response (AID 540252)). Settings: purified PfG6PD enzyme, NADPH direct detection.

| SMILES | IC50 |
| --- | --- |
| Cc1ccc(NC(=O)c2cc(N3C(=O)C=CC3=O)ccc2Cl)cc1C | 49.2 µM |
| CCOC(=O)c1ccc(/[N+]([O-])=C/c2ccccc2)cc1 | > 80 µM (inactive) |
| Cc1ccc(C)c(-n2sc3ccc(F)cc3c2=O)c1 | 10.5 µM |
| Cn1c(=O)[nH]c(=O)c2c1nc(SCCN1CCCCC1)n2CCCc1ccccc1 | > 80 µM (inactive) |
| Cn1c(=O)[nH]c(=O)c2c1nc([N+](=O)[O-])n2Cc1ccccc1 | > 80 µM (inactive) |
| O=c1c2ccccc2sn1-c1ccc(S(=O)(=O)N2CCCCC2)cc1 | > 80 µM (inactive) |
| CN(CCO)c1cc(Sc2nc3ccccc3s2)c2nonc2c1[N+](=O)[O-] | 24 µM |
| OCCN1CCN(C(=S)c2ccc(-c3ccccc3)cc2)CC1 | > 80 µM (inactive) |
| O=C(CNc1ccc2c(c1)OCO2)N/N=C\c1cn(Cc2ccccc2)c2ccccc12 | > 80 µM (inactive) |
| O=[N+]([O-])c1cccc(SSc2cccc([N+](=O)[O-])c2)c1 | 45.3 µM |
| O=C(Nc1nnc(S(=O)(=O)N2CCOCC2)s1)c1cccc(Br)c1 | > 80 µM (inactive) |
| Cc1nc(COC(=O)c2cc(O)c3ccccc3c2O)cs1 | > 80 µM (inactive) |
| Cc1ccccc1N/C(SCc1cccc(Br)c1)=C(/C#N)C(N)=O | > 80 µM (inactive) |
| COC(=O)CCC(=O)OC1(C)C(=O)C2=CN(c3ccccc3)C(c3ccc(OC)cc3)=CC2=C(Br)C1=O (stereo not given) | > 80 µM (inactive) |
| Cc1ccc(-c2nn(C)c(=O)c3ccccc23)cc1CNC(=O)/C=C/c1ccccc1 | > 80 µM (inactive) |
| N#Cc1ccc2c(=O)n(-c3ccccc3)sc2c1 | > 80 µM (inactive) |
| Cc1ccc(NC(=O)Cn2sc3ccccc3c2=O)cc1 | 15 µM |
| O=C(Nc1ccc(N2CCN(C(=O)c3ccco3)CC2)c(Cl)c1)c1cc2ccccc2o1 | > 80 µM (inactive) |
| Cc1ccc(/C=C2\C(=O)NC(=S)N(c3ccccc3F)C2=O)s1 | > 80 µM (inactive) |
| Cc1ccc(-n2sc3ccccc3c2=O)cc1 | 24.8 µM |

| SMILES | IC50 |
| --- | --- |
| C=CCOc1c(Cl)cc(CNc2ccc(N(C)C)cc2)cc1OC | > 80 µM (inactive) |
| CCOC(=O)Cc1csc(-n2sc3ccccc3c2=O)n1 | > 80 µM (inactive) |
| C[C@]12CC[C@@H]3c4cc(O)c(O)cc4CC[C@H]3[C@@H]1CC[C@@H]2O | 38 µM |
| CNS(=O)(=O)c1ccc(-c2ccc(C=C3C(=O)NC(=O)NC3=O)o2)cc1 | > 80 µM (inactive) |
| CCC1(CC)Cc2ccccc2C(N)=C1C#N | > 80 µM (inactive) |
| CN1C(=O)CSc2ccc(NC(=O)N3CCc4ccccc43)cc21 | > 80 µM (inactive) |
| Nn1c(SCC(=O)Nc2cccnc2Cl)nnc1-c1ccccc1 | > 80 µM (inactive) |
| COc1ccc2nc3cc(Cl)ccc3c(Nc3ccc(O)c(CN4CCN(C)CC4)c3)c2c1 | > 80 µM (inactive) |
| CCOc1ccccc1NC(=O)CCCc1nc2ccccc2c(=O)[nH]1 | > 80 µM (inactive) |
| O=c1c2cc([N+](=O)[O-])ccc2sn1-c1ccccc1 | 13.9 µM |
| O=S(=O)(Nc1cc(Sc2cccc3cccnc23)c(O)c2ccccc12)c1ccc(F)cc1 | > 80 µM (inactive) |
| CN(C)c1cccc2c1c(NC(=O)c1ccc(Cl)cc1)nn2C | > 80 µM (inactive) |
| Cc1cc(C)c[n+](C2=C([O-])c3ccccc3C(=O)/C2=N\S(=O)(=O)c2cccs2)c1 | > 80 µM (inactive) |
| NC(=O)N/N=C/c1ccc(-n2nncc2-c2ccc(Cl)cc2)cc1 | > 80 µM (inactive) |
| Cc1ccc(C(=O)/C=C/C(=O)c2ccc(C)cc2)cc1 | 42 µM |
| Cc1cc(C)c2c(=O)n(CC(=O)Nc3cccc(F)c3)sc2n1 | > 80 µM (inactive) |
| COc1cccc(C(=O)Nc2nnc(S(=O)(=O)N(C)Cc3ccccc3)s2)c1 | > 80 µM (inactive) |
| O=C1CCN(c2ccccc2)N1 | > 80 µM (inactive) |
| Cc1cccc(NC2=C(NC(=O)c3ccccc3)C(=O)c3ccccc3C2=O)c1 | > 80 µM (inactive) |
| COc1cccc(/C=N/NC(=O)CSc2cccc3cccnc23)c1 | > 80 µM (inactive) |
